Laboratory results published in patent US10244762B1, “Solid aquatic organism control composition and method of use” (priority 2016, dated 2019).

System: Microcystis aeruginosa
Experiment: M. aeruginosa cultures, peroxide held constant with Fe-EDTA and citric acid
Assay type: cell-based
Details: 1.75 ppm H2O2; for In vivo chl a concentrations (± SD) of M. aeruginosa cultures: initial 3.83 ± 0.05 μg/L
Description: Tests were conducted similar to Example 1 to show the efficacy of compositions made according to the present disclosure against Microcystis aeruginosa. M. aeruginosa is a species of fresh water bacteria that can form harmful algal blooms.
Peroxide concentrations were held constant at either 0.5 ppm, 1.5 ppm, 1.75 ppm, or 2.0 ppm. Fe-EDTA was applied at 0.3%, 0.6%, or 0.9% based on the original dry formulation. Citric acid was added at 1% based on the original dry formulation.
For instance, Tables 5 and 6 below illustrate the differences when peroxide was applied at 1.75 ppm.

OO [H2O2, hydrogen peroxide]
In vivo chl a concentrations (± SD) of M. aeruginosa cultures (day 1): 2.87 ± 0.74 µg/L
In vivo chl a concentrations (± SD) of M. aeruginosa cultures (day 2): 1.72 ± 0.66 µg/L
In vivo chl a concentrations (± SD) of M. aeruginosa cultures (day 3): 1.31 ± 0.64 µg/L
In vivo chl a concentrations (± SD) of M. aeruginosa cultures (day 4): 1.32 ± 0.63 µg/L
Cell density of M. aeruginosa cultures (± SD) (day 4, initial cell density 2.2E+06 ± 7.2E+04 cells/mL): 8.0E+04 cells/mL
